Assay results reported in patent US6410575B1, “Viral treatment” (The Procter & Gamble Company, priority 1999, dated 2002).
Values after ≈ are worked out from the molar mass of the structure shown. Values joined by “and” are separate entries in the source; they are usually repeats but may differ in a detail not shown here. Identical values can stand only once. Like-named read-outs stand apart in the source and are kept apart here.

Legend:
hepatitis B = experiment: In vitro virus production test of hepatitis B, HEPG2 2.2.15; type: cell-based; conditions: for IC50: Hepatitis B virus, HepG2 2.2.15, hepatitis B, read-out: IC50
HIV-1 cell line, CEMRF = experiment: Long term in vitro study, CEMRF; type: cell-based; conditions: 7 μg/ml
Protocol: (§1) Toxicity quantification involves the XTT-based evaluation. Assays were designed to characterize the long term effects of the compounds on virus production and to characterize the longer term effects of the compounds on virus production from chronically HIV infected cells.
(§2) CEM-SS cells chronically infected with HIV isolate, for example SKI (CEM-SKI) are cultured in RPMI1640 tissue culture medium supplemented with 10% fetal bovine serum and antibiotics. […] CEM-SKI or other infected cells with no added drug are used as the control cells.
(§3) Cells are allowed to grow to a density of approximately 1×10^6 cells/ml and are then passaged at a 1:10 dilution. […] The drug concentration in the flask is then increased two-fold and the cells maintained as above.
(§4) The cell populations contain integrated copies of the HIV genome and constitutively produce HIV at relatively high levels or are latently infected and only produce virus after stimulation with phorbol esters, tumor necrosis factor or IL6(U1 and ACH2). Reductions in virus products were observed when quantifying supernatant reverse transcriptase activity.
The results with CEMRF cells was reported at weekly intervals.
The CEMRF is a viral strain of the CEMSS cell line.

[1] = system: U937RF, a protease resistant strain; experiment: Long term in vitro study, U937RF; type: cell-based, HIV
Protocol: as §1, §2, §3, §4
The results with U937RF cells were reported at weekly intervals.

vero cells = experiment: Herpes simplex testing, toxicity (TC50); set-up: unit not given beside the values

NC(=S)Nc1nsc(-c2ccccc2)n1
% virus control (hepatitis B; 0.64 μg/ml): 55.1%
DNA Copy Number (per 3 μl), mean (hepatitis B; 0.64 μg/ml): 145.8 per 3 μl
DNA Copy Number (per 3 μl), sample (hepatitis B; 0.64 μg/ml): 131.5 per 3 μl and 155.2 per 3 μl and 150.8 per 3 μl
% virus control (hepatitis B; 2 μg/ml): 31.9%
DNA Copy Number (per 3 μl), mean (hepatitis B; 2 μg/ml): 84.3 per 3 μl
% virus control (hepatitis B; 6.4 μg/ml): 36.1%
DNA Copy Number (per 3 μl), mean (hepatitis B; 6.4 μg/ml): 95.4 per 3 μl
% virus control (hepatitis B; 20 μg/ml): 15.8%
DNA Copy Number (per 3 μl), mean (hepatitis B; 20 μg/ml): 41.9 per 3 μl
% virus control (hepatitis B; 64 μg/ml): 33.1%
DNA Copy Number (per 3 μl), mean (hepatitis B; 64 μg/ml): 87.5 per 3 μl
DNA Copy Number (per 3 μl), sample (hepatitis B; 64 μg/ml): 98.6 per 3 μl and 76.0 per 3 μl and 87.8 per 3 μl
% virus control (hepatitis B; 200 μg/ml): 22.7%
DNA Copy Number (per 3 μl), mean (hepatitis B; 200 μg/ml): 60.0 per 3 μl
IC50 (hepatitis B; HEPG2 2.2.15, replicate experiment): 0.76 µg/mL (≈ 3.22 µM)
IC50 (hepatitis B; HEPG2 2.2.15): 0.94 µg/mL (≈ 3.98 µM)
therapeutic index or TI (hepatitis B; hepatitis B, HEPG2 2.2.15): 212.8
TI (hepatitis B; hepatitis B, HEPG2 2.2.15, replicate experiment): 263.2
virus production (supernatant reverse transcriptase activity) (HIV-1 cell line, CEMRF; day 4): 5423
virus production (supernatant reverse transcriptase activity) (HIV-1 cell line, CEMRF; day 11): 2249
virus production (supernatant reverse transcriptase activity) (HIV-1 cell line, CEMRF; day 18): 2951
virus production (supernatant reverse transcriptase activity) (HIV-1 cell line, CEMRF; day 25): 3606
virus production (supernatant reverse transcriptase activity) ([1]; 7 μg/ml, day 4): 1627
virus production (supernatant reverse transcriptase activity) ([1]; 7 μg/ml, day 11): 1526
virus production (supernatant reverse transcriptase activity) ([1]; 7 μg/ml, day 18): 4086
virus production (supernatant reverse transcriptase activity) ([1]; 7 μg/ml, day 25): 5303
virus production (supernatant reverse transcriptase activity) ([1]; 7 μg/ml, day 32): 4827
virus production (supernatant reverse transcriptase activity) ([1]; 7 μg/ml, day 39): 6008
virus production (supernatant reverse transcriptase activity) ([1]; 7 μg/ml, day 46): 3586
virus production (supernatant reverse transcriptase activity) ([1]; 7 μg/ml, day 53): 5726
virus production (supernatant reverse transcriptase activity) ([1]; 15 μg/ml, day 4): 1575
virus production (supernatant reverse transcriptase activity) ([1]; 15 μg/ml, day 11): 1482
virus production (supernatant reverse transcriptase activity) ([1]; 15 μg/ml, day 18): 3772
virus production (supernatant reverse transcriptase activity) ([1]; 15 μg/ml, day 25): 2654
virus production (supernatant reverse transcriptase activity) ([1]; 15 μg/ml, day 32): 1594
virus production (supernatant reverse transcriptase activity) ([1]; 15 μg/ml, day 39): 3538
virus production (supernatant reverse transcriptase activity) ([1]; 15 μg/ml, day 46): 2426
virus production (supernatant reverse transcriptase activity) ([1]; 15 μg/ml, day 53): 3976
virus production (supernatant reverse transcriptase activity) ([1]; 30 μg/ml, day 4): 1751
virus production (supernatant reverse transcriptase activity) ([1]; 30 μg/ml, day 11): 1237
virus production (supernatant reverse transcriptase activity) ([1]; 30 μg/ml, day 18): 2892
virus production (supernatant reverse transcriptase activity) ([1]; 30 μg/ml, day 25): 735
virus production (supernatant reverse transcriptase activity) ([1]; 30 μg/ml, day 32): 1035
virus production (supernatant reverse transcriptase activity) ([1]; 30 μg/ml, day 39): 1265
virus production (supernatant reverse transcriptase activity) ([1]; 30 μg/ml, day 46): 1358
virus production (supernatant reverse transcriptase activity) ([1]; 30 μg/ml, day 53): 2333
TC50 (vero cells): > 200
